Results from ChEMBL document CHEMBL2429738, “Synthesis and biological evaluation of biotin conjugates of (±)-(4bS,8aR,10aS)-10a-ethynyl-4b,8,8-trimethyl-3,7-dioxo-3,4b,7,8,8a,9,10,10a-octahydro-phenanthrene-2,6-dicarbonitrile, an activator of the Keap1/Nrf2/ARE pathway, for the isolation of its protein targets” (Bioorg Med Chem Lett, 2013).

Target: NAD(P)H dehydrogenase [quinone] 1 (Mus musculus) (UniProt Q64669)
Assay: Induction of NQO1 activity in mouse Hepa1c1c7 cells assessed as concentration required to double specific enzyme activity after 48 hrs
Format: cell-based

Sequence of NAD(P)H dehydrogenase [quinone] 1 (Mus musculus) (Q64669 whole entry): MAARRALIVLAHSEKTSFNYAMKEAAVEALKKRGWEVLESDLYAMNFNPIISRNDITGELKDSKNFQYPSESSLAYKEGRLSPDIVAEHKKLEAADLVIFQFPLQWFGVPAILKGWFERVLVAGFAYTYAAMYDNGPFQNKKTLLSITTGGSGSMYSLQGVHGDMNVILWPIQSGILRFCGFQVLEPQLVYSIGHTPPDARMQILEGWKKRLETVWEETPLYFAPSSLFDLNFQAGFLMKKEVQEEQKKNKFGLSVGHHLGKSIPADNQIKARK

SMILES | CD [nM]
C#C[C@]12C=C(C#N)C(=O)C=C1[C@@]1(C)C=C(C#N)C(=O)C(C)(C)[C@@H]1CC2 (racemic) | 1
C#C[C@]12C=C(C#N)C(=O)C=C1[C@@]1(C)C=C(C#N)C(=O)[C@@](C)(CO)[C@@H]1CC2 (racemic) | 2.2
